Assay results: PMC5546919 (The Journal of organic chemistry, 2010)

Experiments:
Assay type in all cases: biochemical
[1] = biological target: T1, human 26S proteasome, trypsin-like (T-L) activity (Homo sapiens, UniProt Q99436); assay: Proteasome-Glo luminogenic assay, T-L substrate
T1 sequence (Q99436 44-277): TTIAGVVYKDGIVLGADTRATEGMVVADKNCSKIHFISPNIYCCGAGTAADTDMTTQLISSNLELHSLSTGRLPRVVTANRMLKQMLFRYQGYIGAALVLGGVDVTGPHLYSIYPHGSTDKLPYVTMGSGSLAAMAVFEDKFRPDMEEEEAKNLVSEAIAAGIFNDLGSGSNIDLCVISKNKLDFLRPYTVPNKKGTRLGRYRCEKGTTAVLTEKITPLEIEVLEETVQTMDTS

[2] = biological target: T2, human 20S proteasome, caspase-like (C-L) activity (Homo sapiens, UniProt P28072); assay: Proteasome-Glo luminogenic assay, C-L substrate
T2 sequence (P28072 35-239): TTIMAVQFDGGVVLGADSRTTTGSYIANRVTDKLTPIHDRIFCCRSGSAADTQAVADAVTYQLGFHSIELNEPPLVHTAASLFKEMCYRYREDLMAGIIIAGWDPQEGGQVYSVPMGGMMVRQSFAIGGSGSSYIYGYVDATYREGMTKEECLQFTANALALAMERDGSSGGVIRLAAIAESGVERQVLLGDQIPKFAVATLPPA

[3] = biological target: T3, human 26S proteasome, caspase-like (C-L) activity (Homo sapiens, UniProt P28072); assay: Proteasome-Glo luminogenic assay, C-L substrate
T3 sequence (P28072 35-239): T2 sequence (P28072 35-239)

[4] = biological target: T4, human 20S proteasome, trypsin-like (T-L) activity (Homo sapiens, UniProt Q99436); assay: Proteasome-Glo luminogenic assay, T-L substrate
T4 sequence (Q99436 44-277): T1 sequence (Q99436 44-277)

[5] = biological target: T5, human 20S proteasome, chymotrypsin-like (CT-L) activity (Homo sapiens, UniProt P28074); assay: Proteasome-Glo luminogenic assay, CT-L substrate
T5 sequence (P28074 60-263): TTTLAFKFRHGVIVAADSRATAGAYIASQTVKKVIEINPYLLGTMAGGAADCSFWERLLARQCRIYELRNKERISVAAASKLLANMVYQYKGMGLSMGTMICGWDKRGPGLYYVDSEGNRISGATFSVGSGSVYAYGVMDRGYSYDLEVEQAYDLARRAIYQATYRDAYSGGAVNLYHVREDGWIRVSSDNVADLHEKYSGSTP

[6] = biological target: T6, human 26S proteasome, chymotrypsin-like (CT-L) activity (Homo sapiens, UniProt P28074); assay: Proteasome-Glo luminogenic assay, CT-L substrate
T6 sequence (P28074 60-263): T5 sequence (P28074 60-263)

SMILES	IC50 [1]	IC50 [2]	IC50 [3]	IC50 [4]	IC50 [5]	IC50 [6]
C[C@@]12OC(=O)[C@]1([C@@H](O)[C@@H]1C=CCCC1)NC(=O)[C@@H]2CCCCl [compound 54, (−)-homosalino]	125 ± 30 nM	144 ± 12 nM	188 ± 3 nM	118 ± 28 nM	–	–
CCCCCCC1C(=O)NC2(C(O)C3C=CCCC3)C(=O)OC12C (racemic) [(±)-2, rac-cinnabaramide A]	–	125 ± 12 nM	–	260 ± 29 nM	2.8 ± 0.6 nM	2.2 ± 0.04 nM
C[C@@]12OC(=O)[C@]1([C@@H](O)[C@@H]1C=CCCC1)NC(=O)[C@@H]2CCCl [1a, (−)-salino A]	37 ± 16 nM	111 ± 22 nM	156 ± 18 nM	39 ± 7 nM	–	–
